Measured values from patent publication US8377938B2, “Phenoxypyridine derivative salts and crystals thereof, and process for preparing the same” (Eisai R&D Management Co., Ltd., priority 2007, dated 2013).

What was measured:
[1] = tested on: Human gastric cancer cells (MKN-45); experiment: Inhibitory activity against the proliferation of human gastric cancer cells (MKN-45); type: cell-based; settings: 72 h, read-out: IC50, concentration necessary to inhibit the cell proliferation by 50%, MKN-45, 1% FBS RPMI1640, 3 days, Cell Counting Kit-8
Description: Pharmacological Test Example 2:Inhibitory Activity Against the Proliferation of Human Gastric Cancer Cells (MKN-45)
Human gastric cancer cells (MKN-45) were suspended in a 1% FBS-containing RPMI1640 medium (purchased from Sigma). The cell suspension (1×10^4 cells/ml) was added in a 96-well plate for cell culture (purchased from NUNC, Production No. 167008) at 0.1 ml/well, and then cultured in a 5% CO2 incubator (37° C.) overnight. After the culture, each well was supplied with 0.1 ml of a test substance diluted with a 1% FBS-containing RPMI1640 medium, followed by culturing in a 5% CO2 incubator (37° C.) for 3 days. After the culture, each well was supplied with 10 μl of Cell Counting Kit-8 (purchased from DOJINDO, Production No. 343-07623), followed by incubation in a 5% CO2 incubator (37° C.) for about 1.5 hrs. After the incubation, using the Plate Reader MTP-500 (Corona Electric), the absorbance of each well was determined at a measurement wavelength of 450 nm and a reference wavelength of 660 nm.

[2] = tested on: HGFR autophosphorylation; experiment: Inhibitory activity against the HGFR autophosphorylation using ELISA; type: cell-based; settings: Homo sapiens, read-out: IC50, concentration necessary to inhibit HGFR autophosphorylation activity by 50%, MKN-45 cells, 1 hr treatment
Description: Pharmacological Test Example 3:Inhibitory Activity Against the HGFR Autophosphorylation Using ELISA
1. Preparation of Cell Extract
Human gastric cancer cells (MKN-45) were suspended in a 1% FBS-containing RPMI1640 medium (purchased from Sigma). The cell suspension (1×10^5 cells/ml) was put in a 96-well plate for cell culture (purchased from NUNC, Production No. 167008) at 0.1 ml/well, and then cultured in a 5% CO2 incubator (37° C.) overnight. After the culture, from each well was removed the supernatant solution, followed by adding 0.05 ml of a 1% FBS-containing RPMI1640 medium. […]
Each well of the plate prepared in 2. was washed three times with 200 μl of PBS, and supplied with 150 μl of 3% BSA/PBS, followed by incubating at room temperature for 2 hrs. […] Each well was supplied with 70 μl of 1 M phosphoric acid, and using the Plate Reader MTP-500 (Corona Electric), the absorbance of the well was instantly determined at a measurement wavelength of 450 nm. While defining the absorbance of a well supplied with the cell extract having no test substance as 100% HGFR autophosphorylation activity, and the absorbance, of a well supplied with 50 μl of the lysis buffer as 0% HGFR autophosphorylation activity, the HGFR autophosphorylation activity (%) was calculated for each well. […]

IC50 [1] [µM] | IC50 [2] [µM] | SMILES
0.017 | 0.016 | CN1CCN(C2CCN(C(=O)Nc3cc(Oc4ccc(NC(=O)C5(C(=O)Nc6ccc(F)cc6)CC5)c(F)c4)ccn3)CC2)CC1 [compound 1, N-(2-fluoro-4-{[2-({[4-(4-methylpiperazin-1-yl)piperidin-1-yl]carbonyl}amino)pyridin-4-yl]oxy}phenyl)-N′-(4-fluorophenyl)cyclopropane-1,1-dicarboxyamide]
0.005 | 0.0084 | O=C(Nc1cc(Oc2cc(F)c(NC(=O)C3(C(=O)Nc4ccc(F)cc4)CC3)cc2F)ccn1)N1CC(O)C1 [compound 2, N-{2,5-difluoro-4-[(2-{[(3-hydroxyazetidin-1-yl)carbonyl]amino}pyridin-4-yl)oxy]phenyl}-N′-(4-fluorophenyl)cyclopropane-1,1-dicarboxyamide]
